Measured values taken from PubChem BioAssay (NCI).
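Values below derive from 48-hour exposures of cells grown in 96-well plates, with endpoints linearly interpolated between the two concentrations bracketing the appropriate inhibition level. GI50: concentration for 50% inhibition of growth. TGI denotes the concentration required for complete inhibition of growth.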

Columns and labels:
Experiment in all cases: NCI anticancer screen, dose series, 48 h
HCT-116 colon = tested on: HCT-116 colon
T-47D breast = tested on: T-47D breast
IGROV1 ovarian = tested on: IGROV1 ovarian
HT29 colon = tested on: HT29 colon
SF-539 CNS = tested on: SF-539 CNS
NCI-H460 lung = tested on: NCI-H460 lung
MDA-MB-231 breast = tested on: MDA-MB-231 breast
MDA-MB-435 = tested on: MDA-MB-435
SNB-75 CNS = tested on: SNB-75 CNS
UACC-62 melanoma = tested on: UACC-62 melanoma
MOLT-4 leukemia = tested on: MOLT-4 leukemia
NCI-H23 lung = tested on: NCI-H23 lung
SK-OV-3 ovarian = tested on: SK-OV-3 ovarian
SNB-19 CNS = tested on: SNB-19 CNS
SR leukemia = tested on: SR leukemia
KM12 colon = tested on: KM12 colon
SK-MEL-5 melanoma = tested on: SK-MEL-5 melanoma
OVCAR-3 ovarian = tested on: OVCAR-3 ovarian
MCF7 breast = tested on: MCF7 breast
OVCAR-4 ovarian = tested on: OVCAR-4 ovarian
ACHN renal = tested on: ACHN renal
PC-3 prostate = tested on: PC-3 prostate
M14 melanoma = tested on: M14 melanoma
RPMI-8226 leukemia = tested on: RPMI-8226 leukemia
K-562 leukemia = tested on: K-562 leukemia
HS 578T breast = tested on: HS 578T breast
TK-10 renal = tested on: TK-10 renal
786-0 renal = tested on: 786-0 renal
UACC-257 melanoma = tested on: UACC-257 melanoma
CCRF-CEM leukemia = tested on: CCRF-CEM leukemia
RXF 393 renal = tested on: RXF 393 renal
HCT-15 colon = tested on: HCT-15 colon
UO-31 renal = tested on: UO-31 renal
NCI-H522 lung = tested on: NCI-H522 lung
CAKI-1 renal = tested on: CAKI-1 renal
A549 NSCLC = tested on: A549 NSCLC
OVCAR-5 ovarian = tested on: OVCAR-5 ovarian
LOX IMVI melanoma = tested on: LOX IMVI melanoma
HCC-2998 colon = tested on: HCC-2998 colon
A498 renal = tested on: A498 renal
MALME-3M melanoma = tested on: MALME-3M melanoma
OVCAR-8 ovarian = tested on: OVCAR-8 ovarian
SF-268 CNS = tested on: SF-268 CNS
NCI-H226 lung = tested on: NCI-H226 lung
SK-MEL-28 melanoma = tested on: SK-MEL-28 melanoma
HOP-62 NSCLC = tested on: HOP-62 NSCLC
COLO 205 colon = tested on: COLO 205 colon
DU-145 prostate = tested on: DU-145 prostate
SW-620 colon = tested on: SW-620 colon
SN12C renal = tested on: SN12C renal
NCI/ADR-RES ovarian = tested on: NCI/ADR-RES ovarian
SK-MEL-2 melanoma = tested on: SK-MEL-2 melanoma
U251 CNS = tested on: U251 CNS
HOP-92 NSCLC = tested on: HOP-92 NSCLC
BT-549 breast = tested on: BT-549 breast

Q: What does the source list for `COc1ccc(/C=C2/CN(C(=O)c3ccccc3F)C/C(=C\c3ccc(OC)cc3)C2=O)cc1`?
A: GI50 (HCT-116 colon): 0.392 µM; TGI (HCT-116 colon): 1.39 µM; GI50 (T-47D breast): 5.65 µM; TGI (T-47D breast): 76.2 µM; GI50 (IGROV1 ovarian): 3.43 µM; TGI (IGROV1 ovarian): 11.3 µM; GI50 (HT29 colon): 1.96 µM; TGI (HT29 colon): 3.78 µM; GI50 (SF-539 CNS): 3.65 µM; TGI (SF-539 CNS): 14.6 µM; GI50 (NCI-H460 lung): 8.81 µM; TGI (NCI-H460 lung): 30.8 µM; GI50 (MDA-MB-231 breast): 2.88 µM; TGI (MDA-MB-231 breast): 9.04 µM; GI50 (MDA-MB-435): 2.48 µM; TGI (MDA-MB-435): 9.93 µM; GI50 (SNB-75 CNS): 11.4 µM; TGI (SNB-75 CNS): 39.8 µM; GI50 (UACC-62 melanoma): 2.53 µM; TGI (UACC-62 melanoma): 11.5 µM; GI50 (MOLT-4 leukemia): 3.79 µM; TGI (MOLT-4 leukemia): 49.5 µM; GI50 (NCI-H23 lung): 5.03 µM; TGI (NCI-H23 lung): 24.3 µM; GI50 (SK-OV-3 ovarian): 4.58 µM; TGI (SK-OV-3 ovarian): 18.3 µM; GI50 (SNB-19 CNS): 6.21 µM; TGI (SNB-19 CNS): 20.7 µM; GI50 (SR leukemia): 0.884 µM; TGI (SR leukemia): 6.33 µM; GI50 (KM12 colon): 1.91 µM; TGI (KM12 colon): 3.59 µM; GI50 (SK-MEL-5 melanoma): 1.88 µM; TGI (SK-MEL-5 melanoma): 4.14 µM; GI50 (OVCAR-3 ovarian): 2.3 µM; TGI (OVCAR-3 ovarian): 4.95 µM; GI50 (MCF7 breast): 0.543 µM; TGI (MCF7 breast): 3.56 µM; GI50 (OVCAR-4 ovarian): 6.02 µM; TGI (OVCAR-4 ovarian): > 100 µM; GI50 (ACHN renal): 2.95 µM; TGI (ACHN renal): 9.46 µM; GI50 (PC-3 prostate): 2.57 µM; TGI (PC-3 prostate): 8.87 µM; GI50 (M14 melanoma): 2.73 µM; TGI (M14 melanoma): 7.51 µM; GI50 (RPMI-8226 leukemia): 0.242 µM; TGI (RPMI-8226 leukemia): 0.714 µM; GI50 (K-562 leukemia): 3.49 µM; TGI (K-562 leukemia): > 100 µM; GI50 (HS 578T breast): 2.54 µM; TGI (HS 578T breast): 8.31 µM; GI50 (TK-10 renal): 4.95 µM; TGI (TK-10 renal): 17.7 µM; GI50 (786-0 renal): 2.04 µM; TGI (786-0 renal): 4.37 µM; GI50 (UACC-257 melanoma): 3.24 µM; TGI (UACC-257 melanoma): 13.3 µM; GI50 (CCRF-CEM leukemia): 2.76 µM; TGI (CCRF-CEM leukemia): > 100 µM; GI50 (RXF 393 renal): 1.85 µM; TGI (RXF 393 renal): 3.68 µM; GI50 (HCT-15 colon): 2.05 µM; TGI (HCT-15 colon): 6.62 µM; GI50 (UO-31 renal): 1.9 µM; TGI (UO-31 renal): 6.69 µM; GI50 (NCI-H522 lung): 4.2 µM; TGI (NCI-H522 lung): 15 µM; GI50 (CAKI-1 renal): 4.87 µM; TGI (CAKI-1 renal): > 100 µM; GI50 (A549 NSCLC): 4.83 µM; TGI (A549 NSCLC): 34.3 µM; GI50 (OVCAR-5 ovarian): 7.55 µM; TGI (OVCAR-5 ovarian): 28.8 µM; GI50 (LOX IMVI melanoma): 1.66 µM; TGI (LOX IMVI melanoma): 3.24 µM; GI50 (HCC-2998 colon): 1.91 µM; TGI (HCC-2998 colon): 3.48 µM; GI50 (A498 renal): 13.5 µM; TGI (A498 renal): 27.1 µM; GI50 (MALME-3M melanoma): 5.83 µM; TGI (MALME-3M melanoma): 21.3 µM; GI50 (OVCAR-8 ovarian): 3.4 µM; TGI (OVCAR-8 ovarian): 85.1 µM; GI50 (SF-268 CNS): 4.28 µM; TGI (SF-268 CNS): 18.9 µM; GI50 (NCI-H226 lung): 29.5 µM; TGI (NCI-H226 lung): > 100 µM; GI50 (SK-MEL-28 melanoma): 2.72 µM; TGI (SK-MEL-28 melanoma): 7.93 µM; GI50 (HOP-62 NSCLC): 3.77 µM; TGI (HOP-62 NSCLC): 14.6 µM; GI50 (COLO 205 colon): 3.82 µM; TGI (COLO 205 colon): 12.3 µM; GI50 (DU-145 prostate): 7.47 µM; TGI (DU-145 prostate): 23.9 µM; GI50 (SW-620 colon): 1.86 µM; TGI (SW-620 colon): 3.84 µM; GI50 (SN12C renal): 2.78 µM; TGI (SN12C renal): 10.9 µM; GI50 (NCI/ADR-RES ovarian): 3.49 µM; TGI (NCI/ADR-RES ovarian): 82.5 µM; GI50 (SK-MEL-2 melanoma): 15.3 µM; TGI (SK-MEL-2 melanoma): 35.8 µM; GI50 (U251 CNS): 2.18 µM; TGI (U251 CNS): 5.14 µM; GI50 (HOP-92 NSCLC): 10.3 µM; TGI (HOP-92 NSCLC): 39.6 µM; GI50 (BT-549 breast): 2.05 µM; TGI (BT-549 breast): 4.32 µM
